# From ChEMBL document CHEMBL1667854, “6''-Azido-6''-deoxy-UDP-N-acetylglucosamine as a glycosyltransferase substrate” (Bioorg Med Chem Lett, 2011)
# The source made the active and inactive calls. No cut-off for these calls is given here.
# Target: T1, UDP-N-acetylglucosamine--peptide N-acetylglucosaminyltransferase 110 kDa subunit (Homo sapiens) (UniProt O15294)
# T1 sequence (whole entry): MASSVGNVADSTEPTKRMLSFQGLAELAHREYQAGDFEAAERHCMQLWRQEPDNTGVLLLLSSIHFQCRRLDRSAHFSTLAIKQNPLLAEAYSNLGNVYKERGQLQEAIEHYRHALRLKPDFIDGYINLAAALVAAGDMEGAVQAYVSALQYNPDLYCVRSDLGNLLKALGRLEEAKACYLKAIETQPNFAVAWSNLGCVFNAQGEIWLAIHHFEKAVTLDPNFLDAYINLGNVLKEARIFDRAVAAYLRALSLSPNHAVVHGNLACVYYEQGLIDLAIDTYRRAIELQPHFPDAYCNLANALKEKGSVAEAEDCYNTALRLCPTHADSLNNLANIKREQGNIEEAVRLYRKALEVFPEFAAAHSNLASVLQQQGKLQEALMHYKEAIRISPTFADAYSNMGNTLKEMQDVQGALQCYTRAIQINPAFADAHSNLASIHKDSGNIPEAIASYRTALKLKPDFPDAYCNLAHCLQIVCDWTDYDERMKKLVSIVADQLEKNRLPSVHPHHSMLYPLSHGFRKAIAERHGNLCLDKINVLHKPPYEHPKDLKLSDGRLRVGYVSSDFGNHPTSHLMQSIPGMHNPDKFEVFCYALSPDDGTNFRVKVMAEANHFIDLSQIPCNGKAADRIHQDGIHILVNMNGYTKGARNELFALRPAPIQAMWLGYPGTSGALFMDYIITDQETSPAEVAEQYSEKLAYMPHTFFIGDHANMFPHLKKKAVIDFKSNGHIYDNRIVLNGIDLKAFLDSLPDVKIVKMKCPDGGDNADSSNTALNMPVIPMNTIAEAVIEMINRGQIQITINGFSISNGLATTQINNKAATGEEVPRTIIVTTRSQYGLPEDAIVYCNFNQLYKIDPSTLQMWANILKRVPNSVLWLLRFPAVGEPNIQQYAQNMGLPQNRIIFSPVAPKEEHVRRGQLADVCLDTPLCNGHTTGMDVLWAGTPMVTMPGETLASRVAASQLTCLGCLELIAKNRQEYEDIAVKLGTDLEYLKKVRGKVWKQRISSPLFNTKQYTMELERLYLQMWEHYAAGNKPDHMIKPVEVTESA
# Test: Activity at human OGT by Western blot analysis
row,Structure (SMILES),Activity
1,CC(=O)N[C@H]1[C@@H](OP(=O)(O)OP(=O)(O)OC[C@H]2O[C@@H](n3ccc(=O)[nH]c3=O)[C@H](O)[C@@H]2O)O[C@H](CN=[N+]=[N-])[C@@H](O)[C@@H]1O,Active
2,CC(=O)N[C@@H]1[C@@H](O)[C@H](O)[C@@H](CN=[N+]=[N-])O[C@@H]1O,Active
